Measured values from ChEMBL document CHEMBL1143055, “2,3,5-Substituted tetrahydrofurans as cancer chemopreventives. Part 1: synthesis and anti-cancer activities of 5-hydroxymethyl-2,3-diaryl-tetrahydro-furan-3-ols” (2007).

Key:
UACC-257 = test: Antitumor activity against human UACC257 cells; assay type: functional
A498 = test: Antitumor activity against human A498 cells; assay type: functional
RXF 393 = test: Antitumor activity against human RXF393 cells; assay type: functional
[1] = Antitumor activity against human HS 578T cells; assay type: functional
NCI-H23 = test: Antitumor activity against human NCI-H23 cells; assay type: functional
LOX IMVI = test: Antitumor activity against human LOX IMVI cells; assay type: functional
SK-MEL-28 = test: Antitumor activity against human SK-MEL-28 cells; assay type: functional
SF-295 = test: Antitumor activity against human SF295 cells; assay type: functional
KM12 = test: Antitumor activity against human KM12 cells; assay type: functional
NCI-H460 = test: Antitumor activity against human NCI-H460 cells; assay type: functional
U-251 = test: Antitumor activity against human U251 cells; assay type: functional
MCF7 = test: Antitumor activity against human MCF7 cells; assay type: functional
OVCAR-3 = test: Antitumor activity against human OVCAR-3 cells; assay type: functional
ACHN = test: Antitumor activity against human ACHN cells; assay type: functional
TK-10 = test: Antitumor activity against human TK10 cells; assay type: functional
HOP-92 [2] = test: Antitumor activity against human HOP92 cells; assay type: functional
A549 = test: Antitumor activity against human A549 cells; assay type: functional
SF-539 = test: Antitumor activity against human SF539 cells; assay type: functional
HT-29 = test: Antitumor activity against human HT29 cells; assay type: functional
SNB-19 = test: Antitumor activity against human SNB19 cells; assay type: functional
BT-549 = test: Antitumor activity against human BT549 cells; assay type: functional
PC-3 = test: Antitumor activity against human PC3 cells; assay type: functional
NCI-H522 = test: Antitumor activity against human NCI-H522 cells; assay type: functional
DU-145 = test: Antitumor activity against human DU145 cells; assay type: functional
EKVX = test: Antitumor activity against human EKVX cells; assay type: functional
RPMI-8226 = test: Antitumor activity against human RPMI8226 cells; assay type: functional
[3] = Antitumor activity against human […] cells; assay type: functional
HCT-15 = test: Antitumor activity against human HCT15 cells; assay type: functional
NCI-H226 = test: Antitumor activity against human NCI-H226 cells; assay type: functional
HOP-92 [4] = test: Growth inhibition of human HOP92 cells at 10 nM; assay type: functional
CAKI-1 = test: Antitumor activity against human CAKI-1 cells; assay type: functional
Malme-3M = test: Antitumor activity against human MALME-3M cells; assay type: functional
MOLT-4 = test: Antitumor activity against human MOLT4 cells; assay type: functional
OVCAR-8 = test: Antitumor activity against human OVCAR8 cells; assay type: functional
SK-OV-3 = test: Antitumor activity against human SK-OV-3 cells; assay type: functional
CCRF-CEM = test: Antitumor activity against human CCRF-CEM cells; assay type: functional
IGROV-1 = test: Antitumor activity against human IGROV1 cells; assay type: functional
786-0 = test: Antitumor activity against human 786-0 cells; assay type: functional
[5] = Growth inhibition of human HS 578T cells at 0.1 uM; assay type: functional
HOP-62 = test: Antitumor activity against human HOP62 cells; assay type: functional
OVCAR-5 = test: Antitumor activity against human OVCAR5 cells; assay type: functional
SR = test: Antitumor activity against human SR cells; assay type: functional
HCC 2998 = test: Antitumor activity against human HCC2998 cells; assay type: functional
UO-31 = test: Antitumor activity against human UO31 cells; assay type: functional
NCI/ADR-RES = test: Antitumor activity against human NCI/ADR-RES cells; assay type: functional
SW-620 = test: Antitumor activity against human SW620 cells; assay type: functional
SF-268 = test: Antitumor activity against human SF268 cells; assay type: functional
SNB-75 = test: Antitumor activity against human SNB75 cells; assay type: functional
[6] = Antitumor activity against human NCI-H322 cells; assay type: functional
[7] = Antitumor activity against human HL60 (TB) cells; assay type: functional, HL-60(TB); details: HL-60
COLO 205 = test: Antitumor activity against human COLO205 cells; assay type: functional
UACC-62 = test: Antitumor activity against human UACC62 cells; assay type: functional
SK-MEL-5 = test: Antitumor activity against human SK-MEL-5 cells; assay type: functional
HCT-116 = test: Antitumor activity against human HCT116 cells; assay type: functional
OVCAR-4 = test: Antitumor activity against human OVCAR4 cells; assay type: functional
K562 = test: Antitumor activity against human K562 cells; assay type: functional
SN12C = test: Antitumor activity against human SN12C cells; assay type: functional
MDA-MB-435 = test: Antitumor activity against human MDA-MB-435 cells; assay type: functional

`OC[C@H]1C[C@](O)(c2ccc(F)cc2)[C@@H](c2ccc(F)cc2)O1` (relative stereo) showed a GI50 (UACC-257) greater than 100 µM, a GI50 (A498) greater than 100 µM and a GI50 (RXF 393) of 52.5 µM. The GI50 [1] was 44.7 µM, the GI50 (NCI-H23) was greater than 100 µM and the GI50 (LOX IMVI) was greater than 100 µM. The GI50 (SK-MEL-28) was greater than 100 µM, the GI50 (SF-295) was greater than 100 µM and the GI50 (KM12) was greater than 100 µM. It also gave a GI50 (NCI-H460) greater than 100 µM, a GI50 (U-251) greater than 100 µM and a GI50 (MCF7) greater than 100 µM. For the same molecule, the GI50 (OVCAR-3) was greater than 100 µM, the GI50 (ACHN) was greater than 100 µM and the GI50 (TK-10) was greater than 100 µM. It also gave a GI50 (HOP-92 [2]) of 66.1 µM, a GI50 (A549) greater than 100 µM and a GI50 (SF-539) greater than 100 µM. The GI50 (HT-29) was greater than 100 µM, the GI50 (SNB-19) was greater than 100 µM and the GI50 (BT-549) was greater than 100 µM. The GI50 (PC-3) was greater than 100 µM, the GI50 (NCI-H522) was greater than 100 µM and the GI50 (DU-145) was greater than 100 µM. The GI50 (EKVX) was greater than 100 µM, the GI50 (RPMI-8226) was greater than 100 µM and the GI50 [3] was greater than 100 µM. It also gave a GI50 (HCT-15) greater than 100 µM, a GI50 (NCI-H226) greater than 100 µM and an inhibition at 0.01 µM (HOP-92 [4]) of 13%. For the same molecule, the GI50 (CAKI-1) was greater than 100 µM, the GI50 (Malme-3M) was greater than 100 µM and the GI50 (MOLT-4) was 100 µM. For the same molecule, the GI50 (OVCAR-8) was greater than 100 µM, the GI50 (SK-OV-3) was greater than 100 µM and the GI50 (CCRF-CEM) was greater than 100 µM. The GI50 (IGROV-1) was 58.9 µM, the GI50 (786-0) was greater than 100 µM and the inhibition at 0.1 µM [5] was 29%. It also gave a GI50 (HOP-62) greater than 100 µM, a GI50 (OVCAR-5) greater than 100 µM and a GI50 (SR) greater than 100 µM. The GI50 (HCC 2998) was greater than 100 µM, the GI50 (UO-31) was greater than 100 µM and the GI50 (NCI/ADR-RES) was greater than 100 µM. For the same molecule, the GI50 (SW-620) was greater than 100 µM, the GI50 (SF-268) was greater than 100 µM and the GI50 (SNB-75) was greater than 100 µM. For the same molecule, the GI50 [6] was greater than 100 µM, the GI50 [7] was greater than 100 µM and the GI50 (COLO 205) was greater than 100 µM. It also gave a GI50 (UACC-62) greater than 100 µM, a GI50 (SK-MEL-5) greater than 100 µM and a GI50 (HCT-116) of 91.2 µM. For the same molecule, the GI50 (OVCAR-4) was greater than 100 µM, the GI50 (K562) was greater than 100 µM and the GI50 (SN12C) was greater than 100 µM. It also gave a GI50 (MDA-MB-435) greater than 100 µM.
